The text below walks through data of ChEMBL document CHEMBL1155531, “Structure guided design of 5-arylindazole glucocorticoid receptor agonists and antagonists” (J Med Chem, 2010).

Each structure is given as a SMILES string.

Data set [1] deals with T1, Glucocorticoid receptor (Homo sapiens, UniProt P04150).
T1 sequence (P04150 whole entry): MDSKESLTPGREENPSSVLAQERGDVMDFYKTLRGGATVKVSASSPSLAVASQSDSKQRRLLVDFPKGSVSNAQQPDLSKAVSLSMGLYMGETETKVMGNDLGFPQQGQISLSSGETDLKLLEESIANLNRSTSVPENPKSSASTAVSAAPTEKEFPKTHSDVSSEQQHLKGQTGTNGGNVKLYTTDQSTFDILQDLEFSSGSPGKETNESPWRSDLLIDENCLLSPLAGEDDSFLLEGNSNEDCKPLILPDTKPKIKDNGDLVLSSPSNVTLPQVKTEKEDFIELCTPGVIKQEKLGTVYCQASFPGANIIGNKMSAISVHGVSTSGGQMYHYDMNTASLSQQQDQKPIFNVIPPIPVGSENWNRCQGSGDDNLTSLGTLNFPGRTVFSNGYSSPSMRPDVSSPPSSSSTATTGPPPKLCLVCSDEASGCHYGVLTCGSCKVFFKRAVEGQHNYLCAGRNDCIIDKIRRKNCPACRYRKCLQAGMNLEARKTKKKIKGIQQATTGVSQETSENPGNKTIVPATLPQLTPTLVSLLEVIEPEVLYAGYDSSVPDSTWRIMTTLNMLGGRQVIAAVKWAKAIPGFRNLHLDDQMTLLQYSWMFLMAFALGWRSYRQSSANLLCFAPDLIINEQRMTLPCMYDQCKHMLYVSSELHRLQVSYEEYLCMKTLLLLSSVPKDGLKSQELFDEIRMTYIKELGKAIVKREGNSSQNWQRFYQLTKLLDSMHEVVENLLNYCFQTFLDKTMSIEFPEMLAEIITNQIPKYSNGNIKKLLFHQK
The data set is described as follows: Displacement of fluorescent-labeled Dexamethasone from GR by fluorescent polarization assay.

Data set [2] is described as follows: Plasma concentration in mouse bearing mouse NIH-3T3 cells integrated with MMTV reporter gene at 100 mg/kg, po after 1 hr. The data set is classed as ADME, organism-based, NIH3T3. Also on record: dose 100 mg/kg, route oral.
Data set [3] is described as follows: Volume of distribution at steady state in DBA1 mouse at 1 mg/kg, po and 1 mg/kg, iv. The data set is classed as ADME, organism-based. The settings on record: in vivo, read-out: Vdss.
A further data set relates to Hepatocyte. The data set is described as follows: Toxicity in human hepatocytes assessed as increase in PEPCK mRNA level after 18 hrs by PCR. Format: cell-based.
A short description of data set [4]: Relative plasma concentration in mouse assessed as ratio of plasma concentration in mouse at 1 mg/kg, po to IC50 for NF-kappaB transrepression activity in A549 cells expressing MMTV reporter gene. The data set is classed as ADME, organism-based. Also on record: dose 1 mg/kg, route oral. The settings on record: in vivo. Background: A reporter such as luciferase makes a cellular process visible.

A short description of data set [5]: Plasma concentration in mouse bearing mouse NIH-3T3 cells integrated with MMTV reporter gene at 0.1 mg/kg, po after 1 hr. Format: ADME, organism-based, NIH3T3. More on the design: dose 0.1 mg/kg, route oral.
The nature of data set [6]: Oral bioavailability in DBA1 mouse at 1 mg/kg. Format: ADME, organism-based. The settings on record: in vivo.
In the next data set the test system is Mus musculus. The data set is described as follows: Inhibition of IL1-induced circulating IL6 release in mouse at 1 mg/kg, po. The data set is classed as functional.
A short description of data set [7]: Relative plasma concentration in mouse assessed as ratio of plasma concentration in mouse at 10 mg/kg, po to IC50 for NF-kappaB transrepression activity in A549 cells expressing MMTV reporter gene. More on the design: dose 10 mg/kg, route oral. To be noted: in vivo. Format: ADME, organism-based.
Data set [8] in a line: Plasma concentration in mouse bearing mouse NIH-3T3 cells integrated with MMTV reporter gene at 1 mg/kg, po after 1 hr. The data set is classed as ADME, organism-based, NIH3T3. More on the design: dose 1 mg/kg, route oral.
Data set [9] can be described thus: Antiinflammatory activity in human primary synovial fibroblasts assessed as inhibition of IL1-induced IL6 release after 18 hrs by MSD technology. The data set is classed as functional.
The next data set addresses T2, Progesterone receptor (Homo sapiens, UniProt P06401).
T2 sequence (P06401 whole entry): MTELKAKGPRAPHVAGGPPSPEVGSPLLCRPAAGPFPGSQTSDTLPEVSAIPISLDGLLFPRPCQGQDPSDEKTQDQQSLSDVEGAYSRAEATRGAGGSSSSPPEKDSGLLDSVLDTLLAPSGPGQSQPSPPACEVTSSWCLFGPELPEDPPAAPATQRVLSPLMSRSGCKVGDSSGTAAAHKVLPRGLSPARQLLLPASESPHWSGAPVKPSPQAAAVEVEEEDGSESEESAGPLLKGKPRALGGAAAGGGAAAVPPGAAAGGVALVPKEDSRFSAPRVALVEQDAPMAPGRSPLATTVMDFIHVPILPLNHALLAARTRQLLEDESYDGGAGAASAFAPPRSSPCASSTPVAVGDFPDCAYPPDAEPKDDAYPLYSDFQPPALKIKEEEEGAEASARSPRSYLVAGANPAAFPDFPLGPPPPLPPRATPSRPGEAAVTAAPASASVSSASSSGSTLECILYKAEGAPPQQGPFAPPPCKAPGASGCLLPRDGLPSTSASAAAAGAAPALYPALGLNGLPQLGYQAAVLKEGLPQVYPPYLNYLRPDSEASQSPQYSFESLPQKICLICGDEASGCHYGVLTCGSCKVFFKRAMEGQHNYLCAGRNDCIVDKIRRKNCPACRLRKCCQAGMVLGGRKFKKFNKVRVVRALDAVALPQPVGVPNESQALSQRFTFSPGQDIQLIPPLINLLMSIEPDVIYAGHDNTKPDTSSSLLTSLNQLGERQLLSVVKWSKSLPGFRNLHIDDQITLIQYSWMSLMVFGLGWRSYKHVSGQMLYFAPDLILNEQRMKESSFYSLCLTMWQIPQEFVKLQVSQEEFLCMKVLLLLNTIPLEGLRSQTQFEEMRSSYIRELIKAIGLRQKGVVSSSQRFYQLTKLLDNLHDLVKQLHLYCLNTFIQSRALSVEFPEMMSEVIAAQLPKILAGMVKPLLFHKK
The data set is described as follows: Binding affinity to PR.

Data set [10] in a line: Plasma clearance in CD rat at 1 mg/kg, po and 1 mg/kg, iv. The data set is classed as ADME, organism-based.
Data set [11] is described as follows: Antiinflammatory activity in human primary synovial fibroblasts assessed as inhibition of IL1-induced MMP1 release after 18 hrs by MSD technology. Format: functional.
Data set [12] concerns the target T1, Glucocorticoid receptor. The data set is described as follows: Activity at GR in human A549 cells by NF-kappaB transrepression assay. The data set is classed as cell-based.
Data set [13] can be described thus: Relative fraction unbound in mouse assessed as ratio of fraction unbound in mouse at 10 mg/kg, po to IC50 for NF-kappaB transrepression activity in A549 cells expressing MMTV reporter gene. The data set is classed as ADME, organism-based. Also on record: dose 10 mg/kg, route oral. The settings on record: in vivo.
The nature of data set [14]: Tmax in CD rat at 1 mg/kg, po. The data set is classed as ADME, organism-based. More on the design: dose 1 mg/kg, route oral. The settings on record: in vivo.

On to `O=S(=O)(Cc1ccccc1)Nc1ccc(-c2ccc3c(cnn3-c3ccc(F)cc3)c2)c(C(F)(F)F)c1`, for which the IC50 on Glucocorticoid receptor [1] is 10 nM; in data set [9], 3.16 nM; on Progesterone receptor, > 10000 nM; in data set [11], 1.26 nM; on Glucocorticoid receptor [12], 10 nM. The concentration at 1 h in data set [2] was determined as 12100 nM; in data set [5] it was 25 nM; in data set [8], 290 nM. In addition, in data set [3], the Vd is 1.8 L/kg. Also, the Activity entry in the data set with Hepatocyte is given as “Toxic”. The “fold change (FC)” value is 29 in data set [4], 273 in data set [7] and 0.5 in data set [13]. Moreover, the bioavailability in data set [6] was > 51%. The inhibition in vivo at 1 mg/kg in the data set on Mus musculus is 0%. Moreover, in data set [10], the clearance is 8 mL/min/kg. The time to peak (Tmax) in data set [14] was determined as 6 h.

In general, IC50 refers to the concentration needed to halve the response being measured. Broadly, the bioavailability is dose-corrected exposure relative to a reference, in per cent. Higher therefore signals much systemic uptake. The inhibition in vivo is the drop in the measured response relative to a control, in per cent. Lower therefore signals little suppression. The term Tmax denotes the time from dosing to the highest level.
